# The source made the active and inactive calls. No cut-off for these calls is given here.
# Test system: MDA-MB-231
# Details: Homo sapiens, 10 uM
# Description: Inhibition of cell invasion of human MDA-MB-231 cells at 10 uM incubated for 96 hrs by Matrigel based assay
row,Structure (SMILES),inhibition
1,COc1cc(O)cc(O)c1C(=O)c1ccc(O)c(O)c1,Active
2,C/C(=C\CO[C@@H]1O[C@H](CO)[C@@H](O)[C@H](O)[C@H]1O)C(O)CCC(C)(C)O (stereo not given in full),Active
3,COc1cc(C2c3c(cc(OC)c(O)c3OC)CC(CO)C2COC2OCC(O)C(O)C2O)cc(OC)c1O (stereo not given),Active
4,Cc1c(O)cc2c(c1O)C(=O)[C@H](O)[C@@H](c1ccc(O)c(O)c1)O2,Active
5,O=C1C[C@@H](c2ccc(O)c(O)c2)Oc2cc(O[C@@H]3O[C@H](CO)[C@@H](O)[C@H](O)[C@H]3O)cc(O)c21,Active

# Source: ChEMBL document CHEMBL4420065, “Synaptojanin-2 inhibitors for use in the treatment of cancer” (2017)
